Data published in ChEMBL document CHEMBL1201861, “Genomics of Drug Sensitity in Cancer screening data, Wellcome Trust Sanger Institute”.
Several values for one entry are separate records, joined by “and”; a condition that tells them apart may be missing. Equal values may be shown once. Where a SMILES comes first, the peptide text is derived from it. The star is where a group is joined. Cbz = O=C(OCc1ccccc1)*

Key:
Assay in all cases: cells
BB65-RCC = assay type: functional, cell-based, Homo sapiens;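 also: growth inhibition of the cell line, measured with a cell viability assay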
Description: SANGER: Inhibition of human BB65-RCC cell growth in a cell viability assay.

A704 = assay type: functional, cell-based; settings: Homo sapiens;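 also: growth inhibition of human A704 cells, read out with a cell viability assay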
Description: SANGER: Inhibition of human A704 cell growth in a cell viability assay.

BB49-HNC = assay type: functional, cell-based, Homo sapiens;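 also: cell viability assay read-out, reported as inhibition of BB49-HNC cell growth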
Description: SANGER: Inhibition of human BB49-HNC cell growth in a cell viability assay.

8-MG-BA = assay type: functional, cell-based, Homo sapiens;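 also: growth inhibition of 8-MG-BA cells, read out with a cell viability assay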
Description: SANGER: Inhibition of human 8-MG-BA cell growth in a cell viability assay.

RPMI-8226 = assay type: functional, cell-based, Homo sapiens
Description: SANGER: Inhibition of human RPMI-8226 cell growth in a cell viability assay.

ETK-1 = assay type: functional, cell-based, Homo sapiens;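 also: growth inhibition of human ETK-1 cells, read out with a cell viability assay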
Description: SANGER: Inhibition of human ETK-1 cell growth in a cell viability assay.

PSN1 = assay type: functional, cell-based, Homo sapiens;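 also: suppression of growth of human PSN1 cells, read out by a cell viability assay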
Description: SANGER: Inhibition of human PSN1 cell growth in a cell viability assay.

SJSA-1 = assay type: functional, cell-based, Homo sapiens;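 also: growth inhibition of human SJSA-1 cells, read out through a cell viability measurement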
Description: SANGER: Inhibition of human SJSA-1 cell growth in a cell viability assay.

HL-60 = assay type: functional, cell-based, Homo sapiens;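 also: growth inhibition of human HL-60 cells, read out with a cell viability assay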
Description: SANGER: Inhibition of human HL-60 cell growth in a cell viability assay.

TK-10 = assay type: functional, cell-based, Homo sapiens;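 also: growth inhibition of TK-10 cells, read out in a cell viability assay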
Description: SANGER: Inhibition of human TK10 cell growth in a cell viability assay.

A3-KAW = assay type: functional, cell-based, Homo sapiens;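 also: growth inhibition of human A3-KAW cells, read out with a cell viability assay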
Description: SANGER: Inhibition of human A3-KAW cell growth in a cell viability assay.

HT-144 = assay type: functional, cell-based, Homo sapiens
Description: SANGER: Inhibition of human HT-144 cell growth in a cell viability assay.

A498 = assay type: functional, cell-based, Homo sapiens;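 also: growth inhibition of human A498 cells, read out with a cell viability assay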
Description: SANGER: Inhibition of human A498 cell growth in a cell viability assay.

TE-1 = assay type: functional, cell-based, Homo sapiens;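 also: growth inhibition of the human TE-1 cell line, read out with a cell viability assay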
Description: SANGER: Inhibition of human TE-1 cell growth in a cell viability assay.

MLMA = assay type: functional, cell-based, Homo sapiens;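 also: growth inhibition of MLMA cells (human), determined through a cell viability readout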
Description: SANGER: Inhibition of human MLMA cell growth in a cell viability assay.

EW-11 = assay type: functional, cell-based, Homo sapiens;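 also: growth inhibition of human EW-11 cells, measured with a cell viability assay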
Description: SANGER: Inhibition of human EW-11 cell growth in a cell viability assay.

NCI-H209 = assay type: functional, cell-based, Homo sapiens;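 also: growth inhibition of human NCI-H209 cells, measured by a cell viability assay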
Description: SANGER: Inhibition of human NCI-H209 cell growth in a cell viability assay.

SNB-75 = assay type: functional, cell-based, Homo sapiens;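 also: cell viability assay measuring growth inhibition of human SNB-75 cells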
Description: SANGER: Inhibition of human SNB75 cell growth in a cell viability assay.

Becker = assay type: functional, cell-based, Homo sapiens;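 also: growth inhibition of Becker cells, read out with a cell viability assay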
Description: SANGER: Inhibition of human Becker cell growth in a cell viability assay.

SCH = assay type: functional, cell-based, Homo sapiens;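 also: growth inhibition of human SCH cells, read out in a cell viability assay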
Description: SANGER: Inhibition of human SCH cell growth in a cell viability assay.

KP-N-YS = assay type: functional, cell-based, Homo sapiens;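 also: cell viability assay measuring inhibition of cell line growth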
Description: SANGER: Inhibition of human KP-N-YS cell growth in a cell viability assay.

ES5 = assay type: functional, cell-based, Homo sapiens;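 also: growth inhibition of human ES5 cells, read out by a cell viability assay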
Description: SANGER: Inhibition of human ES5 cell growth in a cell viability assay.

U-87 MG = assay type: functional, cell-based, Homo sapiens, U-87MG ATCC;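 also: growth inhibition of the cells measured with a viability assay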
Description: SANGER: Inhibition of human U-87-MG cell growth in a cell viability assay.

BB30-HNC = assay type: functional, cell-based, Homo sapiens;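 also: growth inhibition of the cultured cell line, read out by a cell viability assay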
Description: SANGER: Inhibition of human BB30-HNC cell growth in a cell viability assay.

HD-MY-Z = assay type: functional, cell-based, Homo sapiens;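 also: growth inhibition of HD-MY-Z cells, read out with a cell viability assay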
Description: SANGER: Inhibition of human HD-MY-Z cell growth in a cell viability assay.

LNCaP-Clone-FGC = assay type: functional, cell-based, Homo sapiens
Description: SANGER: Inhibition of human LNCaP-Clone-FGC cell growth in a cell viability assay.

DU-4475 = assay type: functional, cell-based, Homo sapiens
Description: SANGER: Inhibition of human DU-4475 cell growth in a cell viability assay.

NOMO-1 = assay type: functional, cell-based, Homo sapiens;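 also: growth inhibition of human NOMO-1 cells measured by a cell viability assay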
Description: SANGER: Inhibition of human NOMO-1 cell growth in a cell viability assay.

MC116 = assay type: functional, cell-based, Homo sapiens;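 also: growth inhibition of MC116 cells, read out with a cell viability assay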
Description: SANGER: Inhibition of human MC116 cell growth in a cell viability assay.

C2BBe1 = assay type: functional, cell-based, Homo sapiens;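 also: growth inhibition of C2BBe1 cells, read out through a viability assay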
Description: SANGER: Inhibition of human C2BBe1 cell growth in a cell viability assay.

SK-PN-DW = assay type: functional, cell-based, Homo sapiens;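 also: growth inhibition measured with a viability assay on these cells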
Description: SANGER: Inhibition of human SK-PN-DW cell growth in a cell viability assay.

NB13 = assay type: functional, cell-based, Homo sapiens;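 also: cell viability readout measuring growth inhibition of human NB13 cells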
Description: SANGER: Inhibition of human NB13 cell growth in a cell viability assay.

GT3TKB = assay type: functional, cell-based, Homo sapiens;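 also: growth inhibition of the cell line, read out with a cell viability assay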
Description: SANGER: Inhibition of human GT3TKB cell growth in a cell viability assay.

JAR = assay type: functional, cell-based, Homo sapiens;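 also: growth inhibition of human JAR cells determined with a cell viability assay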
Description: SANGER: Inhibition of human JAR cell growth in a cell viability assay.

SW 962 = assay type: functional, cell-based, Homo sapiens;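 also: growth inhibition of human SW962 cells, read out by a cell viability assay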
Description: SANGER: Inhibition of human SW962 cell growth in a cell viability assay.

MEG-01 = assay type: functional, cell-based, Homo sapiens;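 also: growth inhibition of MEG-01 cells, read out by a cell viability assay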
Description: SANGER: Inhibition of human MEG-01 cell growth in a cell viability assay.

LS-411N = assay type: functional, cell-based, Homo sapiens
D283 Med = assay type: functional, cell-based, Homo sapiens
Description: SANGER: Inhibition of human D-283MED cell growth in a cell viability assay.

ES4 = assay type: functional, cell-based, Homo sapiens;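 also: growth inhibition of human ES4 cells, read out by a cell viability assay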
Description: SANGER: Inhibition of human ES4 cell growth in a cell viability assay.

no-10 = assay type: functional, cell-based, Homo sapiens;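 also: growth inhibition of no-10 cells, read out with a cell viability assay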
Description: SANGER: Inhibition of human no-10 cell growth in a cell viability assay.

HOP-62 = assay type: functional, cell-based, Homo sapiens;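 also: cell growth inhibition determined with a viability assay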
Description: SANGER: Inhibition of human HOP-62 cell growth in a cell viability assay.

IST-MEL1 = assay type: functional, cell-based, Homo sapiens;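 also: growth inhibition of the cell line, read out with a cell viability assay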
Description: SANGER: Inhibition of human IST-MEL1 cell growth in a cell viability assay.

MHH-PREB-1 = assay type: functional, cell-based, Homo sapiens;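 also: cell viability assay measuring inhibition of proliferation of human MHH-PREB-1 cells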
Description: SANGER: Inhibition of human MHH-PREB-1 cell growth in a cell viability assay.

NCI-N87 = assay type: functional, cell-based; settings: Homo sapiens;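 also: growth inhibition of human NCI-N87 cells, read out with a cell viability assay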
Description: SANGER: Inhibition of human NCI-N87 cell growth in a cell viability assay.

GAK = assay type: functional, cell-based, Homo sapiens;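 also: cell growth inhibition read out by a cell viability assay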
Description: SANGER: Inhibition of human GAK cell growth in a cell viability assay.

D-247MG = assay type: functional, cell-based; settings: Homo sapiens
Description: SANGER: Inhibition of human D-247MG cell growth in a cell viability assay.

MMAC-SF = assay type: functional, cell-based; settings: Homo sapiens;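 also: growth inhibition of human MMAC-SF cells, read out with a cell viability assay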
Description: SANGER: Inhibition of human MMAC-SF cell growth in a cell viability assay.

LB771-HNC = assay type: functional, cell-based; settings: Homo sapiens;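 also: growth inhibition of LB771-HNC human cells, read out with a cell viability assay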
Description: SANGER: Inhibition of human LB771-HNC cell growth in a cell viability assay.

KS-1 = assay type: functional, cell-based; settings: Homo sapiens;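 also: growth inhibition of KS-1 cells, read out with a cell viability assay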
Description: SANGER: Inhibition of human KS-1 cell growth in a cell viability assay.

OCUB-M = assay type: functional, cell-based; settings: Homo sapiens;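 also: growth inhibition of the cancer cell line, read out through a cell viability assay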
Description: SANGER: Inhibition of human OCUB-M cell growth in a cell viability assay.

DSH1 = assay type: functional, cell-based; settings: Homo sapiens;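 also: growth inhibition of human DSH1 cells, measured with a cell viability readout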
Description: SANGER: Inhibition of human DSH1 cell growth in a cell viability assay.

With `CC(C)C[C@@H](C=O)NC(=O)[C@H](CC(C)C)NC(=O)[C@H](CC(C)C)NC(=O)OCc1ccccc1` [MG-132] (Cbz-Leu-Leu-Leu-aldehyde) the IC50 (BB65-RCC; bb65-rcc) was 0.568 µM and > 1 µM, the IC50 (A704) was 0.487 µM and the IC50 (BB49-HNC; bb49-hnc) was 0.491 µM and > 1 µM. The IC50 (8-MG-BA; 8-mg-ba) was 0.398 µM and > 1 µM, the IC50 (RPMI-8226; rpmi-8226) was > 1 µM and 0.423 µM and the IC50 (ETK-1; Homo sapiens, ETK-1) was over 1 µM. The IC50 (ETK-1; etk-1) was over 1 µM, the IC50 (PSN1; psn1) was over 1 µM and the IC50 (SJSA-1; Homo sapiens, SJSA-1) was over 1 µM. For the same molecule, the IC50 (SJSA-1; sjsa-1) was over 1 µM, the IC50 (HL-60; hl-60) was over 1 µM and the IC50 (TK-10; tk-10) was 0.254 µM and > 1 µM. For the same molecule, the IC50 (A3-KAW; a3-kaw) was over 1 µM, the IC50 (HT-144; ht-144) was 0.139 µM and 0.334 µM and the IC50 (A498; Homo sapiens, A498) was over 1 µM. The IC50 (A498; a498) was over 1 µM, the IC50 (TE-1; te-1) was 0.451 µM and > 1 µM and the IC50 (MLMA; mlma) was over 1 µM. For the same molecule, the IC50 (EW-11; ew-11) was over 1 µM, the IC50 (NCI-H209; nci-h209) was over 1 µM and the IC50 (SNB-75; snb-75) was over 1 µM. The IC50 (Becker; becker) was 0.796 µM and > 1 µM, the IC50 (SCH; sch) was over 1 µM and the IC50 (KP-N-YS; kp-n-ys) was over 1 µM. For the same molecule, the IC50 (ES5; es5) was over 1 µM, the IC50 (U-87 MG; Homo sapiens, U-87 MG) was over 1 µM and the IC50 (U-87 MG; u-87mg atcc) was over 1 µM. For the same molecule, the IC50 (BB30-HNC; bb30-hnc) was over 1 µM, the IC50 (HD-MY-Z; hd-my-z) was 0.233 µM and > 1 µM and the IC50 (LNCaP-Clone-FGC; Homo sapiens, LNCaP-Clone-FGC) was over 1 µM. For the same molecule, the IC50 (LNCaP-Clone-FGC; lncap-clone-fgc) was over 1 µM, the IC50 (DU-4475; du-4475) was 0.197 µM and > 1 µM and the IC50 (NOMO-1; Homo sapiens, NOMO-1) was over 1 µM. The IC50 (NOMO-1; nomo-1) was over 1 µM, the IC50 (MC116; mc116) was over 1 µM and the IC50 (C2BBe1; c2bbe1) was 0.279 µM and > 1 µM. For the same molecule, the IC50 (SK-PN-DW; sk-pn-dw) was 0.232 µM and > 1 µM, the IC50 (NB13; nb13) was over 1 µM and the IC50 (GT3TKB; gt3tkb) was over 1 µM. The IC50 (JAR; jar) was over 1 µM, the IC50 (SW 962; sw 962) was over 1 µM and the IC50 (MEG-01; meg-01) was over 1 µM. It also gave an IC50 (LS-411N; ls-411n) of over 1 µM, an IC50 (D283 Med; d283 med) of over 1 µM and an IC50 (ES4; es4) of over 1 µM. The IC50 (no-10) was 0.0891 µM and 0.608 µM, the IC50 (HOP-62; hop-62) was 0.109 µM and > 1 µM and the IC50 (IST-MEL1; ist-mel1) was over 1 µM. For the same molecule, the IC50 (MHH-PREB-1; mhh-preb-1) was over 1 µM, the IC50 (NCI-N87) was over 1 µM and the IC50 (GAK; gak) was 0.205 µM and > 1 µM.

In the case of `CO[C@@H]1[C@H](N(C)C(=O)c2ccccc2)C[C@H]2O[C@]1(C)n1c3ccccc3c3c4c(c5c6ccccc6n2c5c31)C(=O)NC4` [MIDOSTAURIN], the IC50 (ETK-1; Homo sapiens, ETK-1) is reported as 0.377 µM, the IC50 (BB30-HNC; Homo sapiens, BB30-HNC) is reported as 0.324 µM and the IC50 (GT3TKB; Homo sapiens, GT3TKB) is reported as 0.38 µM. The IC50 (SW 962; Homo sapiens, SW 962) was over 0.512 µM, the IC50 (HOP-62; Homo sapiens, HOP-62) was 0.181 µM and the IC50 (NCI-N87) was over 0.512 µM.

For `CC1(C)CCC(c2ccc(Cl)cc2)=C(CN2CCN(c3ccc(C(=O)NS(=O)(=O)c4ccc(N[C@H](CCN5CCOCC5)CSc5ccccc5)c(S(=O)(=O)C(F)(F)F)c4)cc3)CC2)C1` [NAVITOCLAX], the IC50 (BB65-RCC; Homo sapiens, BB65-RCC) was over 2 µM, the IC50 (A704) was 0.427 µM and the IC50 (BB49-HNC; Homo sapiens, BB49-HNC) was over 2 µM. The IC50 (8-MG-BA; Homo sapiens, 8-MG-BA) was over 2 µM, the IC50 (D-247MG) was 1.51 µM and the IC50 (RPMI-8226; Homo sapiens, RPMI-8226) was 0.457 µM. For the same molecule, the IC50 (MMAC-SF) was over 2 µM, the IC50 (ETK-1; Homo sapiens, ETK-1) was over 2 µM and the IC50 (PSN1; Homo sapiens, PSN1) was over 2 µM. It also gave an IC50 (SJSA-1; Homo sapiens, SJSA-1) of over 2 µM, an IC50 (HL-60; Homo sapiens, HL-60) of 0.0291 µM and an IC50 (TK-10; Homo sapiens, TK-10) of over 2 µM. For the same molecule, the IC50 (LB771-HNC) was over 2 µM, the IC50 (A3-KAW; Homo sapiens, A3-KAW) was over 2 µM and the IC50 (HT-144; Homo sapiens, HT-144) was over 2 µM. The IC50 (A498; Homo sapiens, A498) was over 2 µM, the IC50 (TE-1; Homo sapiens, TE-1) was over 2 µM and the IC50 (KS-1) was over 2 µM. For the same molecule, the IC50 (MLMA; Homo sapiens, MLMA) was 1.97 µM, the IC50 (EW-11; Homo sapiens, EW-11) was 1.96 µM and the IC50 (NCI-H209; Homo sapiens, NCI-H209) was 0.087 µM. For the same molecule, the IC50 (SNB-75; Homo sapiens, SNB-75) was over 2 µM, the IC50 (Becker; Homo sapiens, Becker) was over 2 µM and the IC50 (SCH; Homo sapiens, SCH) was over 2 µM. It also gave an IC50 (KP-N-YS; Homo sapiens, KP-N-YS) of 1.16 µM, an IC50 (ES5; Homo sapiens, ES5) of over 2 µM and an IC50 (OCUB-M) of over 2 µM. The IC50 (U-87 MG; Homo sapiens, U-87 MG) was over 2 µM, the IC50 (BB30-HNC; Homo sapiens, BB30-HNC) was over 2 µM and the IC50 (HD-MY-Z; Homo sapiens, HD-MY-Z) was over 2 µM. It also gave an IC50 (LNCaP-Clone-FGC; Homo sapiens, LNCaP-Clone-FGC) of over 2 µM, an IC50 (DU-4475; Homo sapiens, DU-4475) of 0.654 µM and an IC50 (NOMO-1; Homo sapiens, NOMO-1) of over 2 µM. The IC50 (MC116; Homo sapiens, MC116) was over 2 µM, the IC50 (C2BBe1; Homo sapiens, C2BBe1) was over 2 µM and the IC50 (SK-PN-DW; Homo sapiens, SK-PN-DW) was over 2 µM. For the same molecule, the IC50 (NB13; Homo sapiens, NB13) was 0.082 µM, the IC50 (GT3TKB; Homo sapiens, GT3TKB) was over 2 µM and the IC50 (JAR; Homo sapiens, JAR) was over 2 µM. For the same molecule, the IC50 (SW 962; Homo sapiens, SW 962) was over 2 µM, the IC50 (MEG-01; Homo sapiens, MEG-01) was 0.583 µM and the IC50 (LS-411N; Homo sapiens, LS-411N) was over 2 µM. It also gave an IC50 (D283 Med; Homo sapiens, D283 Med) of 0.177 µM, an IC50 (ES4; Homo sapiens, ES4) of 1.35 µM and an IC50 (no-10; Homo sapiens) of over 2 µM. It also gave an IC50 (IST-MEL1; Homo sapiens, IST-MEL1) of over 2 µM, an IC50 (DSH1) of over 2 µM and an IC50 (MHH-PREB-1; Homo sapiens, MHH-PREB-1) of over 2 µM. The IC50 (NCI-N87) was over 2 µM and the IC50 (GAK; Homo sapiens, GAK) was over 2 µM.
